In paper PMC6934184, “Selective DNA-PKcs inhibition extends the therapeutic index of localized radiotherapy and chemotherapy” (The Journal of Clinical Investigation, 2019):

Target: T1, DDR1 (Homo sapiens, UniProt Q08345)
T1 construct: purchased Thermo Fisher Scientific (Life Technologies) SelectScreen
Assay: SelectScreen LanthaScreen
Type: binding
Details: read-out: % displacement
Outline: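 NU5455 was profiled across the SelectScreen Broad panel of kinase activity and binding assays. Z'LYTE reactions such as CSF1R ran at apparent Km ATP, while the Adapta CAMK1 assay used ATP listed as 10. Values are given as percent.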

T1 sequence (Q08345 19-913): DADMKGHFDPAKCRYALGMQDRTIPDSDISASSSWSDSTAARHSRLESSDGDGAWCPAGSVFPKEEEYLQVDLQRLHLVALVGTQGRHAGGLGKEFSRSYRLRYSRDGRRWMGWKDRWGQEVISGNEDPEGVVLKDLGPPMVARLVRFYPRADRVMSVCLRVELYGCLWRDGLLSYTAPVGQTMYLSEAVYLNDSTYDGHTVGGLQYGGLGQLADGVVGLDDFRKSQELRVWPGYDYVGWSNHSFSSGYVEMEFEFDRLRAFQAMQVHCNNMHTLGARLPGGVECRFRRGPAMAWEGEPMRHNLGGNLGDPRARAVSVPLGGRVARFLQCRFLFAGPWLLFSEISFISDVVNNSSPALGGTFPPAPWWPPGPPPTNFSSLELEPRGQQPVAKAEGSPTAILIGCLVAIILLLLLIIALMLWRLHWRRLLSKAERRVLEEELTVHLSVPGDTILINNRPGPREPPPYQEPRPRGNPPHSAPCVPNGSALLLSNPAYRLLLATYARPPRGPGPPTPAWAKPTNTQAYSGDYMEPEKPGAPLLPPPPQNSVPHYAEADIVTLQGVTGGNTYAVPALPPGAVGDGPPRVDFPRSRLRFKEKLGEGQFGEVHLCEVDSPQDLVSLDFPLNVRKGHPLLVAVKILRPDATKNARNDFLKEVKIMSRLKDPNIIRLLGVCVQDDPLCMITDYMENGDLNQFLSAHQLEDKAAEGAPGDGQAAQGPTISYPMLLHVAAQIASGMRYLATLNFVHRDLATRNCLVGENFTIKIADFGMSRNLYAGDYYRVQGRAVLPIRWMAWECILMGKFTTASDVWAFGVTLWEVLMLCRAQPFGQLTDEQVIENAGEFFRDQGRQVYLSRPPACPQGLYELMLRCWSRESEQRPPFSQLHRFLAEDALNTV

For `CN(C(=O)CN1CCOCC1)c1ccc2sc3c(-c4cccc5c(=O)cc(N6CC7CCC(C6)O7)oc45)cccc3c2c1` [NU5455], the inhibition at 1 µM was -1.8%.
